Read-outs that look alike come from different tables or passages of the source. Starred links: 1 amine or outer side, 2 acyl side, 3 side chain; linkers in the order of their positions; H or OH if unused. Positions of bridges follow the written chain, without caps; N, C: chain ends. Non-standard residues stand in square brackets, D forms with d. Residues, ends and D or L forms follow the SMILES beside them. γGlu = O=C(O)[C@H](CCC(=O)[*:2])N[*:1]; 1Nal = N[C@@H](Cc1cccc2ccccc12)C(=O)O; 2Nal = N[C@@H](Cc1ccc2ccccc2c1)C(=O)O; βAsp = O=C(O)[C@H](CC(=O)[*:2])N[*:1]; 4Pal = N[C@@H](Cc1ccncc1)C(=O)O; Tic = O=C(O)[C@@H]1Cc2ccccc2CN1; Cit = NC(=O)NCCC[C@H](N)C(=O)O; Ahp(2) = CCCCC[C@H](N)C(=O)O; NMeNle = CCCC[C@H](NC)C(=O)O; Tle = CC(C)(C)[C@H](N)C(=O)O; NHexGly = CCCCCCNCC(=O)O; NMeA = CN[C@@H](C)C(=O)O; Nle = CCCC[C@H](N)C(=O)O; Aun = NCCCCCCCCCCC(=O)O; Nva = CCC[C@H](N)C(=O)O; AEEA = NCCOCCOCC(=O)O

By IC50 is commonly meant the concentration needed to halve the response being measured.

For this assay, the target named is T1, mouse VISTA (mVISTA) (Mus musculus, UniProt Q9D659).
T1 construct: expressed in transfected cells; host or cells: Human embryonic kidney 293T cells
T1 sequence (Q9D659 33-308): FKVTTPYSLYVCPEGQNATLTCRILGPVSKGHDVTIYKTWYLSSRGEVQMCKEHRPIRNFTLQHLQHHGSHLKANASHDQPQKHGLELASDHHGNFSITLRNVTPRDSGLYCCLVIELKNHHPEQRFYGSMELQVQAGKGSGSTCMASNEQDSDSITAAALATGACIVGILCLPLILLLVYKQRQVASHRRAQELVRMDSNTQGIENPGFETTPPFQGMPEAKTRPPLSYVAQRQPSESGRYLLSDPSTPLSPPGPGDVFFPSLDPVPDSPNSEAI
Put plainly: Cell-Based Binding High-Content Assay For mVISTA (HC CBA mVISTA). The gist of the method:
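Read-out: Alexa 647–streptavidin signal imaged on fixed, Hoechst-stained mVISTA-293T cells, with IC50 taken from a four-parameter logistic curve. Compounds competed with 2 nM biotinylated peptide for 30 min at room temperature, tested under both no-wash and wash (1 h compound, media exchange, 1 h) formats.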

[1] abbreviates: cell-based binding high-content assay, mVISTA, read-out: HC CBA miPr ISTA IC50.
The mark [2] stands for this setting: 293T cells expressing mouse VISTA, competition with biotinylated peptide (2 nM), read-out: HC CBA mVISTA IC50.

In the case of `CCCCCCN1CC(=O)N[C@@H](Cc2ccc(O)cc2)C(=O)N[C@@H](C)C(=O)N[C@@H](CC(N)=O)C(=O)N[C@@H](CCCNC(=N)N)C(=O)N(C)[C@@H](CCCC)C(=O)N[C@@H](CCCCC)C(=O)N2CCC[C@H]2C(=O)N[C@@H](C(C)(C)C)C(=O)N[C@@H](CC(=O)O)C(=O)N[C@H](C(=O)N[C@@H](CC(=O)NCCOCCOCC(=O)N[C@@H](CC(=O)O)C(=O)NCCOCCOCC(=O)NCCCCCCCCCCC(=O)O)C(=O)O)CSCC(=O)N[C@@H](Cc2ccccc2)C(=O)N[C@@H](Cc2ccc(O)cc2)C(=O)N[C@@H](CC(=O)O)C1=O` [compound 2096] ({CH2CO}-FYD[NHexGly]YANR[NMeNle][Ahp(2)]P[Tle]DC[βAsp][AEEA]D[AEEA][Aun]-OH; thioether N-14), the IC50 (cell-based binding high-content assay, mVISTA, read-out: HC CBA miPrISTA IC50) was 20 nM.

For the compound `CCCCCCN1CC(=O)N[C@@H](Cc2ccc(O)cc2)C(=O)N[C@@H](CCCC)C(=O)N[C@@H](CC(N)=O)C(=O)N[C@@H](CCCNC(=N)N)C(=O)N[C@@H](CC(C)C)C(=O)N[C@@H](CCCCC)C(=O)N2CCC[C@H]2C(=O)N[C@@H](C(C)C)C(=O)N[C@@H](CO)C(=O)N[C@H](C(=O)NCC(=O)NCCOCCOCC(=O)N[C@@H](CC(=O)O)C(=O)NCCOCCOCC(=O)NCCCCCCCCCCC(=O)O)CSCC(=O)N[C@@H](Cc2ccc3ccccc3c2)C(=O)N[C@@H](Cc2ccc(O)cc2)C(=O)N[C@@H](CC(=O)O)C1=O` [compound 2007] ({CH2CO}-[2Nal]YD[NHexGly]Y[Nle]NRL[Ahp(2)]PVSCG[AEEA]D[AEEA][Aun]-OH; thioether N-14), the IC50 under setting [1] is 19.6 nM.

For the compound `CCCCCCN1CC(=O)N[C@@H](Cc2ccc(O)cc2)C(=O)N[C@@H](CCCC)C(=O)N[C@@H](CC(N)=O)C(=O)N[C@@H](CCCNC(=N)N)C(=O)N(C)[C@@H](CCCC)C(=O)N[C@@H](CCCCC)C(=O)N2CCC[C@H]2C(=O)N[C@@H](C(C)(C)C)C(=O)N[C@@H](CO)C(=O)N[C@H](C(=O)N[C@@H](CC(=O)NCCOCCOCC(=O)N[C@@H](CC(=O)O)C(=O)NCCOCCOCC(=O)NCCCCCCCCCCC(=O)O)C(=O)O)CSCC(=O)N[C@@H](Cc2ccccc2)C(=O)N[C@@H](Cc2c[nH]c3ccccc23)C(=O)N[C@@H](CC(=O)O)C1=O` [compound 2022] ({CH2CO}-FWD[NHexGly]Y[Nle]NR[NMeNle][Ahp(2)]P[Tle]SC[βAsp][AEEA]D[AEEA][Aun]-OH; thioether N-14), under setting [1], the IC50 amounted to 22.7 nM.

In the case of `CCCCCCN1CC(=O)N[C@@H](Cc2ccc(O)cc2)C(=O)N[C@@H](CCCC)C(=O)N[C@@H](CC(N)=O)C(=O)N[C@@H](CCCNC(N)=O)C(=O)N(C)[C@@H](CCCC)C(=O)N[C@@H](CCCCC)C(=O)N(C)[C@@H](C)C(=O)N[C@@H](C(C)C)C(=O)N[C@@H](CO)C(=O)N[C@H](C(=O)NCC(N)=O)CSCC(=O)N[C@@H](Cc2ccccc2)C(=O)N[C@@H](Cc2c[nH]c3ccccc23)C(=O)N[C@@H](CC(=O)O)C1=O` [compound 1144] ({CH2CO}-FWD[NHexGly]Y[Nle]N[Cit][NMeNle][Ahp(2)][NMeA]VSCG-NH2; thioether N-14), the IC50 (read-out: HC CBA mVISTA IC50) was determined as 15.8 nM.

For `CCCCCCN1CC(=O)N[C@@H](Cc2ccc(O)cc2)C(=O)N[C@@H](CCC)C(=O)NCC(=O)N[C@@H](CCCNC(=N)N)C(=O)N[C@@H](CC(C)C)C(=O)N[C@@H](CCCCC)C(=O)N2CCC[C@H]2C(=O)N[C@@H](C(C)C)C(=O)N[C@@H](CO)C(=O)N[C@H](C(=O)NCC(=O)O)CSCC(=O)N[C@@H](Cc2ccccc2)C(=O)N[C@@H](Cc2ccc(O)cc2)C(=O)N[C@@H](CC(=O)O)C1=O` [Example 1061] ({CH2CO}-FYD[NHexGly]Y[Nva]GRL[Ahp(2)]PVSCG-OH; thioether N-14), the IC50 under setting [2] came to 46.3 nM.

On to `CCCCCCN1CC(=O)N[C@@H](Cc2ccc(O)cc2)C(=O)N[C@@H](CCCC)C(=O)N[C@@H](CC(N)=O)C(=O)N[C@@H](CCCNC(=N)N)C(=O)N[C@@H](CC(C)C)C(=O)N[C@@H](CCCCC)C(=O)N2CCC[C@H]2C(=O)N[C@@H](C(C)C)C(=O)N[C@@H](CO)C(=O)N[C@H](C(=O)NCC(=O)O)CSCC(=O)N[C@@H](Cc2cccc3ccccc23)C(=O)N[C@@H](Cc2ccc(O)cc2)C(=O)N[C@@H](CC(=O)O)C1=O` [compound 1452] ({CH2CO}-[1Nal]YD[NHexGly]Y[Nle]NRL[Ahp(2)]PVSCG-OH; thioether N-14), for which the IC50 (the 20th table, scaffold drawing 23, read-out: HC CBA mVISTA IC50) turned out to be 19.9 nM.

As to `CCCCCCN1CC(=O)N[C@@H](Cc2ccc(O)cc2)C(=O)N[C@@H](CCCC)C(=O)N[C@@H](CC(=O)O)C(=O)N[C@@H](CCCNC(=N)N)C(=O)N(C)[C@@H](CCCC)C(=O)N[C@@H](CCCCC)C(=O)N2CCC[C@H]2C(=O)N[C@@H](C(C)(C)C)C(=O)N[C@@H](CC(=O)O)C(=O)N[C@H](C(=O)NCC(N)=O)CSCC(=O)N[C@@H](Cc2ccccc2)C(=O)N[C@@H](Cc2c[nH]c3ccccc23)C(=O)N[C@@H](CC(=O)O)C1=O` [Example 1392] ({CH2CO}-FWD[NHexGly]Y[Nle]DR[NMeNle][Ahp(2)]P[Tle]DCG-NH2; thioether N-14), the IC50 (read-out: HC CBA mVISTA IC50) was determined as 38.3 nM.

As for `CCCCCCN1CC(=O)N[C@@H](Cc2ccc(O)cc2)C(=O)N[C@@H](CCCC)C(=O)N[C@@H](CC(N)=O)C(=O)N[C@@H](CCCNC(=N)N)C(=O)N(C)[C@@H](CCCC)C(=O)N[C@@H](CCCCC)C(=O)N2CCC[C@H]2C(=O)N[C@@H](C(C)(C)C)C(=O)N[C@@H](CO)C(=O)N[C@H](C(=O)NCCOCCOCC(=O)N[C@@H](CCC(=O)NCCOCCOCC(=O)NCCCCCCCCCCC(=O)O)C(=O)O)CSCC(=O)N[C@@H](Cc2ccncc2)C(=O)N[C@@H](Cc2ccc(O)cc2)C(=O)N[C@@H](CC(=O)O)C1=O` [compound 2257] ({CH2CO}-[4Pal]YD[NHexGly]Y[Nle]NR[NMeNle][Ahp(2)]P[Tle]SC[AEEA][γGlu][AEEA][Aun]-OH; thioether N-14), the IC50 (read-out: HC CBA mVISTA IC50) was 40.4 nM.

Regarding `CCCCCCN1CC(=O)N[C@@H](Cc2ccc(O)cc2)C(=O)N[C@@H](CCCC)C(=O)N[C@@H](CC(N)=O)C(=O)N[C@@H](CCCNC(=N)N)C(=O)N(C)[C@@H](CCCC)C(=O)N[C@@H](CCCCC)C(=O)N2CCC[C@H]2C(=O)N[C@@H](C(C)C)C(=O)N[C@@H](CC(=O)O)C(=O)N[C@H](C(=O)NCCOCCOCC(=O)N[C@@H](CCC(=O)NCCOCCOCC(=O)NCCCCCCCCCCC(=O)O)C(=O)O)CSCC(=O)N[C@@H](Cc2ccc3ccccc3c2)C(=O)N[C@@H](Cc2c[nH]c3ccccc23)C(=O)N[C@@H](CC(=O)O)C1=O` [compound 2214] ({CH2CO}-[2Nal]WD[NHexGly]Y[Nle]NR[NMeNle][Ahp(2)]PVDC[AEEA][γGlu][AEEA][Aun]-OH; thioether N-14), the IC50 (read-out: HC CBA mVISTA IC50) stood at 32.7 nM.

Regarding `CCCCCCN1CC(=O)N[C@@H](Cc2ccc(O)cc2)C(=O)N[C@@H](CCCC)C(=O)N[C@@H](CC(N)=O)C(=O)N[C@@H](CCCNC(=N)N)C(=O)N2Cc3ccccc3C[C@H]2C(=O)N[C@@H](CCCCC)C(=O)N2CCC[C@H]2C(=O)N[C@@H](C(C)C)C(=O)N[C@@H](CO)C(=O)N[C@H](C(=O)NCC(N)=O)CSCC(=O)N[C@@H](Cc2ccc3ccccc3c2)C(=O)N[C@@H](Cc2ccc(O)cc2)C(=O)N[C@@H](CC(=O)O)C1=O` [Ex 1304] ({CH2CO}-[2Nal]YD[NHexGly]Y[Nle]NR[Tic][Ahp(2)]PVSCG-NH2; thioether N-14), where the note is “cell-based binding high-content assay, mVISTA, the 16th table, read-out: HC CBA mVISTA IC50”, the IC50 came out at 31.5 nM.

For the compound `CCCCCCN1CC(=O)N[C@@H](Cc2ccc(O)cc2)C(=O)N[C@@H](CCCCN)C(=O)NCC(=O)N[C@@H](CCCNC(=N)N)C(=O)N[C@@H](CC(C)C)C(=O)N[C@@H](CCCCC)C(=O)N2CCC[C@H]2C(=O)N[C@@H](C(C)C)C(=O)N[C@@H](CO)C(=O)N[C@H](C(=O)NCC(=O)O)CSCC(=O)N[C@@H](Cc2ccccc2)C(=O)N[C@@H](Cc2ccc(O)cc2)C(=O)N[C@@H](CC(=O)O)C1=O` [Example 1053] ({CH2CO}-FYD[NHexGly]YKGRL[Ahp(2)]PVSCG-OH; thioether N-14), under setting [2], the IC50 amounted to 20.7 nM.
